Test results: the CheMixHub ionic liquid set

Assay: xn = mol fraction of the nth substance listed

CC(=O)C(=O)O + CC[N+](CC)(CC)CC.[Cl-]
101.3 kPa, x2 = 0.3333
Details | viscosity [mPa·s]
298.15 K | 89.1
308.15 K | 57.5
318.15 K | 37.5
328.15 K | 24.05
338.15 K | 16.05

O=C(O)CO + CC[N+](CC)(CC)CC.[Cl-]
101 kPa, x1 = 0.6667
Details | viscosity [mPa·s]
303.15 K | 268
323.15 K | 87
353.15 K | 27

CC[N+](CC)(CC)CC.O=[N+]([O-])[O-] + CC[NH3+].O=[N+]([O-])[O-]
101 kPa, frequency 0.00293 MHz
Details | electrical conductivity [S/m]
293.15 K, x1 = 0.15 | 1.01
303.15 K, x1 = 0.0501 | 2.13
303.15 K, x1 = 0.15 | 1.42
303.15 K, x1 = 0.35 | 0.565
308.15 K, x1 = 0.2001 | 1.34
313.15 K, x1 = 0.1 | 2.33
318.15 K, x1 = 0.2995 | 1.04
323.15 K, x1 = 0.15 | 2.46

101 kPa
Details | viscosity [mPa·s]
293.15 K, x1 = 0.15 | 74.1
303.15 K, x1 = 0.0501 | 35.5
303.15 K, x1 = 0.15 | 50
303.15 K, x1 = 0.35 | 131
308.15 K, x1 = 0.2001 | 50.4
313.15 K, x1 = 0.1 | 30.3
318.15 K, x1 = 0.2995 | 50.9
323.15 K, x1 = 0.15 | 26.2
328.15 K, x1 = 0.2001 | 26.6
328.15 K, x1 = 0.2567 | 32.4
328.15 K, x1 = 0.35 | 48.3
333.15 K, x1 = 0.15 | 20.1
343.15 K, x1 = 0.15 | 15.7
348.15 K, x1 = 0.2001 | 16
348.15 K, x1 = 0.35 | 26.3
353.15 K, x1 = 0.1 | 11
353.15 K, x1 = 0.35 | 23.4

C[N+]1(CCOCCOCCOCC[N+]2(C)CCCC2)CCCC1.O=S(=O)([N-]S(=O)(=O)C(F)(F)F)C(F)(F)F.O=S(=O)([N-]S(=O)(=O)C(F)(F)F)C(F)(F)F + CC[n+]1ccn(C)c1.N#C[N-]C#N + O=S(=O)([N-]S(=O)(=O)C(F)(F)F)C(F)(F)F.[Li+]
100 kPa, x1 = 0.1489, x2 = 0.7484
Details | electrical conductivity [S/m]
298 K | 0.698
303 K | 0.827
313 K | 1.1
323 K | 1.43
333 K | 1.81
343 K | 2.21

F[P-](F)(F)(F)(F)F.[Li+] + CC[n+]1ccn(C)c1.O=S(=O)([N-]S(=O)(=O)C(F)(F)F)C(F)(F)F
electrical conductivity [S/m], 101 kPa
Details | x2 = 0.7088 | x2 = 0.729 | x2 = 0.8022 | x2 = 0.8765 | x2 = 0.9623
288.15 K | – | 0.124 | 0.208 | 0.431 | 0.52
298.15 K | 0.195 | 0.222 | 0.355 | 0.651 | 0.775
333.15 K | 0.816 | 0.865 | 1.17 | 1.72 | 1.95

F[P-](F)(F)(F)(F)F.[Li+] + CC[n+]1ccn(C)c1.O=S(=O)([O-])C(F)(F)F
electrical conductivity [S/m], 101 kPa
Details | x1 = 0.007746 | x1 = 0.01537 | x2 = 0.9673 | x2 = 0.9746
288.15 K | 0.614 | 0.559 | – | 0.532
298.15 K | 0.898 | 0.816 | 0.786 | 0.785
333.15 K | 2.3 | 2.08 | 2.08 | 2.02
